Consider 4 compounds from article PMC4014147 (Environmental Science & Technology, 2014).

Assay [1] has as its system hepatic gene expression in male Japanese medaka. The assay is described as follows: Medaka 7-day waterborne exposure, hepatic gene expression by qPCR. The format is in vivo, Japanese medaka (Oryzias latipes). (In general: Real-time PCR tracks product formation cycle by cycle.)
The target of a further assay is T1, mERα (Oryzias latipes, UniProt P50241).
T1 sequence (P50241 1-620): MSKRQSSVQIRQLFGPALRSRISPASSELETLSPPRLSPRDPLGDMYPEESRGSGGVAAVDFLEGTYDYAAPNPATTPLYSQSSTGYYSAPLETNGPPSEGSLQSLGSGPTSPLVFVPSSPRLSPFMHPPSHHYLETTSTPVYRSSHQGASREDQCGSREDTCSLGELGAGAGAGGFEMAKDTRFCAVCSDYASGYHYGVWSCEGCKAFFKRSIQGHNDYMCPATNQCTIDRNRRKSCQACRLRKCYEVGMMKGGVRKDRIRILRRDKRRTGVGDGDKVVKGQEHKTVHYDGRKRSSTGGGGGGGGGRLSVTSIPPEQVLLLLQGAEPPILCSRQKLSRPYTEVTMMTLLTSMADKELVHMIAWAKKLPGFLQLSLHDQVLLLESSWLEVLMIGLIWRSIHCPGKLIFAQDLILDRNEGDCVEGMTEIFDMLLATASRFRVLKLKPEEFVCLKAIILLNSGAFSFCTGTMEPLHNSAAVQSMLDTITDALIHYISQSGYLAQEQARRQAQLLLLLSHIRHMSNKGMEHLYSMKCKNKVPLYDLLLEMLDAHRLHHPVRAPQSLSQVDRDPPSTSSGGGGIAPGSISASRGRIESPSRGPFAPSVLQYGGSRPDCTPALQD
The experiment in a line: biochemical. It counts as binding, medaka.

The next assay concerns the target T2, mERβ2 (Oryzias latipes, UniProt B1B6T4).
T2 sequence (B1B6T4 1-542): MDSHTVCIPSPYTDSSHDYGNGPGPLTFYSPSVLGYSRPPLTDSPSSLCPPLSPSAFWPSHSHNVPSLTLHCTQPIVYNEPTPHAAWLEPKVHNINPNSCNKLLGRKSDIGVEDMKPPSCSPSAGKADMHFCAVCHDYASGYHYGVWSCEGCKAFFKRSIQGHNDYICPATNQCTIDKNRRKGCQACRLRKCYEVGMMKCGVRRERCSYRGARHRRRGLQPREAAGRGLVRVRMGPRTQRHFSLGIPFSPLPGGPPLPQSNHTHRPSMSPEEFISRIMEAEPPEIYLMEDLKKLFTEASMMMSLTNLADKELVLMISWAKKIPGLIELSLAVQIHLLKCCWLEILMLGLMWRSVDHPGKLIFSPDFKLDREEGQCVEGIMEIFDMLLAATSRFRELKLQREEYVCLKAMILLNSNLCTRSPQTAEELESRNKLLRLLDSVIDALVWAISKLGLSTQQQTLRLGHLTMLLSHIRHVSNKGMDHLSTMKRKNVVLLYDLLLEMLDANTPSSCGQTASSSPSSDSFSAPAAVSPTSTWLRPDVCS
The assay is described as follows: Competitive ligand binding assay. As to conditions: for RBA (%) mERβ2: ratio of IC50 of E2β to IC50 of competitor. Set-up: species or system medaka.

The target of the next assay is T3, mERβ1 (Oryzias latipes, UniProt A0ACM8PZQ7).
T3 sequence (A0ACM8PZQ7 1-562): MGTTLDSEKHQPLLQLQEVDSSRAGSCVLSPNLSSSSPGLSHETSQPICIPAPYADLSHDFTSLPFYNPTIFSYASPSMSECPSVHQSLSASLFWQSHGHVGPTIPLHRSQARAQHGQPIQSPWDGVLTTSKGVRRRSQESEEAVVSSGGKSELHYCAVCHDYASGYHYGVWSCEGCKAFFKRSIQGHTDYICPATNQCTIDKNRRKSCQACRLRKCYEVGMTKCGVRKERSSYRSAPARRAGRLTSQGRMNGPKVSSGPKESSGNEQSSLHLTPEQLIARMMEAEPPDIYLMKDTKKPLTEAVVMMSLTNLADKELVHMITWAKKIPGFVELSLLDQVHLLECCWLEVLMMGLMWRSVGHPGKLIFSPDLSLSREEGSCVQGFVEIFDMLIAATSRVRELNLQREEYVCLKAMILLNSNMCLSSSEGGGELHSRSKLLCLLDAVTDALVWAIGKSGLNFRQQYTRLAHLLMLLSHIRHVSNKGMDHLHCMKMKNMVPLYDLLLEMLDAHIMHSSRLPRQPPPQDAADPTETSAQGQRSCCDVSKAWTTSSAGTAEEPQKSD
The assay is described as follows: Competitive ligand binding assay. Details: species or system medaka. As to conditions: for RBA (%) mERβ1: ratio of IC50 of E2β to IC50 of competitor.

In another assay the test system is hERα and hERβ. The experiment in a line: T47D-KBluc estrogen screening assay, luciferase reporter. As to conditions: YES-calibrated stock solutions. On the technique in general: A reporter such as luciferase makes a cellular process visible.
A further assay has as its system mERα, mERβ1, and mERβ2. The experiment in a line: Ligand binding assays, comparison of affinity across mER subtypes. Set-up: species or system medaka. As to conditions: from IC50 of competitive binding.
Where [2] appears, read: male medaka liver, 7 days, YES-derived EEQ 0.64 nM, relative to negative control.
[3] abbreviates: liver of E2β-exposed male medaka, mERα expression as calibrator.

Each structure is given as a SMILES string.

For orientation: IC50 means the concentration that gives 50% inhibition. The low end stands for inhibition by little substance, the high end for a need for much substance. `C[C@]12CC[C@@H]3c4ccc(O)cc4CC[C@H]3[C@@H]1CCC2=O` [E1, estrone]: the mERα induction in assay [1] (setting [2]) was 56 fold. In addition, the concentration for half-maximal inhibition (IC50) on mERα was 8.4 nM. For the same compound, the “RBA (%) mERα” value on mERα (ratio of IC50 of E2β to IC50 of competitor) was determined as 36.7%. In addition, on mERβ2, the IC50 is 14.4 nM and the “RBA (%) mERβ2” value came out at 14.6%. Moreover, at mERβ1, the IC50 is 14.4 nM and the “RBA (%) mERβ1” value is 12.6%. For the same compound, the “more potent in the T47D-KBluc versus the YES” value in the assay with hERα and hERβ is “slightly more potent”.
`C[C@]12CC[C@@H]3c4ccc(O)cc4CC[C@H]3[C@@H]1CC[C@H]2O` [E2α, 17α-estradiol] showed a mERα induction in assay [1] (setting [2]) of 24 fold. At mERβ2, the IC50 amounted to 31.1 nM and the “RBA (%) mERβ2” value is recorded as 6.8%. At mERβ1, the IC50 was 18.8 nM and the “RBA (%) mERβ1” value was determined as 9.6%. For the same compound, the “potency less in the T47D-KBluc versus the YES” value in the assay on hERα and hERβ is on record as 3.3 fold.
On to `C[C@]12CC[C@@H]3c4ccc(O)cc4CC[C@H]3[C@@H]1CC[C@@H]2O` [E2β, 17β-estradiol], for which, in assay [1] (setting [3]), the “mERα expression above mERβ1” value was found to be 23 fold and the “mERα expression above mERβ2” value is given as 5 fold. Further, in assay [1] (setting [2]), the Chg-H gene induction is 12,730 fold, the Chg-Hm gene induction is given as 3,796 fold, the Chg-L gene induction is recorded as 324 fold and the Vtg-1 gene induction is on record as 27,004 fold. For the same compound, in assay [1] (setting [2]), the Vtg-2 gene induction was 73,735 fold and the mERα induction is on record as 72 fold. At mERβ2, the IC50 is 2.1 nM and the “RBA (%) mERβ2” value amounted to 100.0%. Besides, on mERβ1, the IC50 was 1.8 nM and the “RBA (%) mERβ1” value turned out to be 100.0%.
With `C[C@]12CC[C@@H]3c4ccc(O)cc4CC[C@H]3[C@@H]1C[C@@H](O)[C@@H]2O` [E3, estriol], the mERα induction in assay [1] (setting [2]) is recorded as 67 fold. Moreover, the “higher affinity for mERβ1 versus mERβ2” value in the assay on mERα, mERβ1, and mERβ2 worked out at 1.9 fold. For the same compound, on mERβ2, the IC50 came to 34.2 nM and the “RBA (%) mERβ2” value is on record as 6.1%. On mERβ1, the IC50 was 18.1 nM and the “RBA (%) mERβ1” value is reported as 10.0%. Besides, the “more potent in the T47D-KBluc versus the YES” value with hERα and hERβ is recorded as “approximately 10 fold”.
